The values below come from patent publication US20220111122A1, “COMPOSITION FOR IMPROVED BONE FRACTURE HEALING” (CORTHOTEC LTD, priority 2019, published 2022).

For test [1], the system named is osteoclast activity (as measured by bone resorption). The test is described as follows: zoledronate concentration versus bone resorption (FIG. 3). It is filed as cell-based. Conditions: osteoclast activity decreases significantly compared to lower concentrations. From the text:
(§1) The graphs in FIGS. 3 and 4 depict the optimal concentrations of zoledronate (derived from zoledronic acid as the bisphosphonate) required to suppress bone resorption by means of a proportionate decrease in osteoclast number.

A further test deals with osteoclast number. Briefly: zoledronate concentration versus osteoclast number (FIG. 4). It is filed as cell-based. Conditions: compared to lower concentrations.
Text: as §1

As to `O=P(O)(O)C(O)(Cn1ccnc1)P(=O)(O)O` [zoledronic acid], in test [1], the “concentration of optimal efficacy to suppress bone resorption” value was “approximately 10^−6 M”. The “concentration of optimal efficacy to decrease osteoclast number” value in the test with osteoclast number was “approximately 10^−6 M”.
